This passage reports TGI and GI50 results from PubChem BioAssay (NCI).

Where “and” joins values, the source holds several entries; their conditions need not be identical. Equal entries are not always repeated.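 These data come from cells grown in 96-well plates and exposed to compound for 48 hours at five concentrations. Abbreviation: GI50, concentration required for 50% inhibition of growth. TGI: concentration producing complete growth inhibition.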

Holding throughout (test): NCI tumour cell line growth inhibition, 48 h
Experiment [1] has as its system DMS 273 small cell lung.
For experiment [2], the system named is DMS 114 small cell lung.
Experiment [3] concerns LXFL 529 NSCLC.
Experiment [4] deals with DLD-1 colon.
Experiment [5] concerns HOP-18 NSCLC.
The test system of experiment [6] is M19-MEL melanoma.
In experiment [7] the test system is SNB-78 CNS.

`COc1cccc2c1c1ccc3c(c1n2C)C(=O)C=CC3=O`: the TGI stood at 32.2 µM in experiment [1]; 43.4 µM in experiment [2]; 24.4 µM in experiment [3]; 31.2 µM in experiment [4]; 29 µM in experiment [5]; 2.52 µM in experiment [6]. The TGI in experiment [7] amounted to 42.5 µM.

With `COc1ccc(CNc2cnc3cc(N)ccc3n2)cc1`, the TGI in experiment [1], in experiment [2], in experiment [3], in experiment [6] and in experiment [7] was greater than 100 µM throughout.

Take `C=C(C)C12CC3CC(/C(=N/O)C(C1)/C3=N\O)[C@@]2(C)O` (some centres undefined): the TGI in experiment [1], in experiment [2], in experiment [3], in experiment [4], in experiment [6] and in experiment [7] was greater than 100 µM throughout.

As to `CSc1nc(-c2ccc(Cl)cc2)c(C#N)c(=O)n1C1OC(COC(C)=O)C(OC(C)=O)C(OC(C)=O)C1OC(C)=O` (centres undefined), the TGI in experiment [1], in experiment [2], in experiment [3], in experiment [4], in experiment [5] and in experiment [6] was greater than 100 µM throughout. Moreover, the TGI in experiment [7] was 39.6 µM and > 100 µM. Also, the GI50 is 24.6 µM and > 100 µM in experiment [2]; 26 µM and > 100 µM in experiment [3]; 34.3 µM and > 100 µM in experiment [6]; 12.4 µM and > 100 µM in experiment [7].

In the case of `OC12c3ccccc3C1CCCCC2N1CCCC1` (centres undefined), the TGI in experiment [1], in experiment [2], in experiment [3], in experiment [5], in experiment [6] and in experiment [7] was greater than 100 µM in each case.

On to `CC(C)(O)C(O)COc1c2c(cc3oc(=O)ccc13)OCO2` (centres undefined), for which the TGI in experiment [1], in experiment [2], in experiment [3], in experiment [4], in experiment [5] and in experiment [6] was greater than 100 µM throughout.

Take `COc1cc(/C=C2\C(=O)N(C(=O)Cc3ccccc3)N=C2C)cc(OC)c1OC`: the TGI in experiment [1], in experiment [2], in experiment [4], in experiment [5], in experiment [6] and in experiment [7] was greater than 100 µM in each case.

As for `COc1cc(C2C(Cl)C(=O)N2NC(=O)Cc2ccccc2)cc(Br)c1O` (centres undefined), the TGI in experiment [1], in experiment [2], in experiment [3], in experiment [4], in experiment [5] and in experiment [6] was greater than 100 µM in each case. In addition, the TGI in experiment [7] was greater than 100 µM.
